Source: PubChem BioAssay (NCI)
Several values for one entry are separate records, joined by “and”; a condition that tells them apart may be missing. Identical values can stand only once.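 Briefly, cells in 96-well plates were exposed to five compound concentrations for 48 h, and endpoints were estimated by linear interpolation. Here, GI50 denotes the concentration required for 50% inhibition of growth. Definition used: TGI = concentration required for complete inhibition of growth.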

How the values were obtained:
Test in all cases: NCI anticancer screen, dose series, 48 h
HOP-18 NSCLC = system: HOP-18 NSCLC
EKVX NSCLC = system: EKVX NSCLC
SNB-19 CNS = system: SNB-19 CNS
M19-MEL melanoma = system: M19-MEL melanoma
NCI-H460 lung = system: NCI-H460 lung
PC-3 prostate = system: PC-3 prostate
SNB-75 CNS = system: SNB-75 CNS
HOP-62 NSCLC = system: HOP-62 NSCLC
NCI-H23 lung = system: NCI-H23 lung
BT-549 breast = system: BT-549 breast

Row | SMILES | TGI (HOP-18 NSCLC) [µM] | GI50 (EKVX NSCLC) [µM] | TGI (EKVX NSCLC) | TGI (SNB-19 CNS) | TGI (M19-MEL melanoma) [µM] | GI50 (NCI-H460 lung) | TGI (NCI-H460 lung) | TGI (PC-3 prostate) [µM] | TGI (SNB-75 CNS) | TGI (HOP-62 NSCLC) [µM] | TGI (NCI-H23 lung) [µM] | TGI (BT-549 breast) [µM] | GI50 (PC-3 prostate) [µM] | GI50 (SNB-75 CNS) [µM]
1 | CCCC/C=C1/CCC(CN(C)C)C1=O (configuration not stated) | 5.56 | 2.14 | 4.48 µM | 12.3 µM | 3.05 | 9.87 µM | 26.8 µM | 27.2 | 6.99 µM | 35.2 | 8.18 | – | – | –
2 | Cc1nc(Nc2ccc(Cl)c(Cl)c2)sc1C(/C=C/c1ccc2c(c1)OCO2)=N/Nc1ccc([N+](=O)[O-])cc1[N+](=O)[O-] | > 100 | – | > 100 µM | > 100 µM | > 100 | – | > 100 µM | > 100 | 32.8 µM | > 84 | > 100 | > 100 | – | –
3 | Nc1nc2c(ncn2C2OC(CO)C(O)C2O)c(=O)[nH]1 (configuration not stated) | 300 | > 100 | > 100 µM and 146 µM | > 100 µM and 21.6 µM | 206 | > 100 µM and 15.5 µM | > 100 µM and 154 µM | > 100 | > 100 µM and 38 µM | 211 | 175 | – | > 100 | > 100
4 | CC1(C)O[C@@H](CCl)C[C@@H](C#N)O1 | > 100 | – | > 100 µM | > 100 µM | > 100 | – | > 100 µM | – | > 100 µM | > 100 | > 100 | – | – | –
